{"source": "paper PMC11241262", "about": "“Unravelling the Antifibrinolytic Mechanism of Action of the 1,2,3-Triazole Derivatives” (International Journal of Molecular Sciences, 2024)", "key": {"in vivo [1]": {"experiment": "in vivo", "settings": "dog, iv, 5 mg/kg; for Morbidity / Mortality: 24 h", "description": "For the pharmacokinetic study in Beagle dogs, a total of 3 male and 3 female dogs were selected. They were acclimatized for 5 days before dosing and at the start of dosing, dogs were between 36 and 37 months old. […] Sterile water was also selected as a vehicle for injection of compound 5. […] A constant dose volume of 1 mL/kg body weight was administered, adjusted according to the most recently recorded body weight of each dog. A single dose of 5 mg/kg b. wt. was selected in the case of dogs.\nBlood collection, plasma separation, and storage procedures were conducted following the same procedure as described for rats. Blood samples (600 µL) were collected from the cephalic vein of the forelimb for each dog. However, the concentration of compound 5 was determined using LC-MS/MS analysis. A column with identical characteristics to the one used in rats was employed, with a flow rate of 0.65 mL/min, a binary elution mode, and a run time of 6.0 min. Plasma samples were analyzed to determine the concentration of the active ingredient, and subsequently, the pharmacokinetic parameters were calculated. After a washout period of 7 days, dogs were returned back to stock."}, "in vivo [2]": {"experiment": "in vivo", "settings": "both sexes, Wistar, rat, iv", "description": "A MTD study was performed for compound 5 in Wistar rats and Beagle dogs. A total of 25 male and 25 female Wistar rats were received in the experimental room and acclimatized for a period of 5 days prior to randomization. The environmental and housing conditions maintained during the experiment were identical to those described in the pharmacokinetic study. At the start of dosing, rats were between 6 and 7 w.o., and their body weight varied no more than ±20% from the mean body weight for each sex. During randomization, 20 male and 20 female rats were selected for the study, which were randomly allocated to four different dose level groups: D1, D2, D3, and D4. Each group consisted of 5 male and 5 female rats. The remaining 5 male and 5 female rats were returned to the animal facility.\nDose formulations of compound 5 were administered by an intravenous bolus injection through the tail vein, using a sterile needle attached to a graduated syringe. Sterile water also served as a vehicle in the MTD assay. A fixed dose volume of 5 mL/kg b. wt. was used, and individual doses were adjusted according to the most recent recorded body weight of each rat. […]\nRats were subjected to twice-daily monitoring for clinical, mortality, and morbidity signs throughout the study. […] Body weight was recorded on days 1 (before treatment), 4, 8, 11, and 14 of the study. […]"}, "[3]": {"molecular_target": "T1, tissue-type plasminogen activator (tPA) (Homo sapiens, UniProt P00750)", "T1 construct": "purchased abcam", "T1 sequence (P00750 36-562)": "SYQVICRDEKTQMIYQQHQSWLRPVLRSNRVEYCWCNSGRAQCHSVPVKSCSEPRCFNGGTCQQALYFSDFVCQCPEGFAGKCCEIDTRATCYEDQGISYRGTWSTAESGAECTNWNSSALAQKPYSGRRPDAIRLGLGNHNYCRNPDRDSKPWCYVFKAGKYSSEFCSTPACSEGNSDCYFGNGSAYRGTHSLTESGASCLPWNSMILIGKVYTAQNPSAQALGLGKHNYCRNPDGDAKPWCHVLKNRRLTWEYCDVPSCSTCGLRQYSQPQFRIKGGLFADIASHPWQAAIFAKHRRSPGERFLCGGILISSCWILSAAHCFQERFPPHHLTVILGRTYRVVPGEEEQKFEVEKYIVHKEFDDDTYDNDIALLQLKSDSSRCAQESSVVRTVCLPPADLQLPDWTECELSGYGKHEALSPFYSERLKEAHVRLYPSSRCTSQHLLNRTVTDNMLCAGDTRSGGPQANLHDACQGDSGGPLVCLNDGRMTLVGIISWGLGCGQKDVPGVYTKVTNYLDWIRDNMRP", "experiment": "tPA activity assay (chromogenic substrate)", "assay_type": "biochemical", "description": "Tris hydrochloride, 1M, pH = 7.5 solution (Thermo Fisher Scientific, Waltham, MA, USA) was used as buffer. […] Recombinant human Tissue Plasminogen Activator (abcam, Cambridge, UK) served as the source of tPA, and was stored at −20 °C until used.\nThe assay measures the inhibition of tPA’s catalytic domain by the tested compounds employing a chromogenic substrate. Different concentrations of the studied molecules were incubated with tPA in a 96-well plate at 37 °C for 10 min. […] After, 20 μL of tPA’s substrate was added to each well. […] The slope for each assay was obtained from the initial and final absorbance values and their respective time points, or until complete substrate cleavage was achieved. (3) Absorbance slope=Abs2−Abs1/t2−t1\nThe Relative tPA Inhibition for each condition was calculated using Equation (2). Then, the Relative tPA Activity (%) was calculated by subtracting the relative tPA inhibition of each concentration from the total activity of the enzyme, obtained from a control without a compound."}, "whole blood clots": {"system": "whole blood clots", "experiment": "Whole blood dosage (effective antifibrinolytic dosage, tPA-triggered clot lysis)", "design": "species or system human", "settings": "10 µg/mL tPA, 37 °C", "description": "Blood was obtained by venipuncture from healthy donors after they signed an informed consent form. Blood was transferred into vacuum non-anticoagulant Vacutainer® tubes (BD, Franklin Lakes, NJ, USA). Blood samples were immediately used for the assay after extraction.\nGlass tubes were prepared with 20 µL of a mixture of tPA, in a final concentration of 10 µg/mL, and the evaluated compounds, in a final concentration of 10, 20, 40, or 60 µM in Tris HCl buffer. A control clot was obtained with 20 µL of tPA with no compound. Then, 800 µL of blood was transferred to each tube and tubes were monitored for clot formation and lysis. The assay was performed with casual shaking. […] The ex vivo effective dosage for each compound was determined by their ability to inhibit complete clot degradation. Photographs were taken after 24 h of incubation."}}}
{"smiles": "O=c1[nH]nc(-c2cn(C3CCNCC3)nn2)o1", "note": "[compound 5]", "values": [{"measurement": "Clinical signs observed: N of dogs with Mild vomiting", "setting": "in vivo [1]; female, Beagle", "value": 1}, {"measurement": "Cmax", "setting": "in vivo [1]; female, Beagle", "value": 15800, "unit": "ng/mL"}, {"measurement": "Kel", "setting": "in vivo [1]; female, Beagle", "value": 0.23, "unit": "h‐1"}, {"measurement": "Tmax", "setting": "in vivo [1]; female, Beagle", "value": 4.8, "unit": "min"}, {"measurement": "half-life", "setting": "in vivo [1]; female, Beagle", "value": 3.04, "unit": "h"}, {"measurement": "Morbidity", "setting": "in vivo [1]; female, Beagle", "value": "0 number of dogs"}, {"measurement": "Mortality", "setting": "in vivo [1]; female, Beagle", "value": "0 number of dogs"}, {"measurement": "Clinical signs observed: N of dogs with Mild vomiting", "setting": "in vivo [1]; male, Beagle", "value": 1}, {"measurement": "Cmax", "setting": "in vivo [1]; male, Beagle", "value": 14000, "unit": "ng/mL"}, {"measurement": "Kel", "setting": "in vivo [1]; male, Beagle", "value": 0.24, "unit": "h‐1"}, {"measurement": "Tmax", "setting": "in vivo [1]; male, Beagle", "value": 4.8, "unit": "min"}, {"measurement": "half-life", "setting": "in vivo [1]; male, Beagle", "value": 2.88, "unit": "h"}, {"measurement": "Morbidity", "setting": "in vivo [1]; male, beagle", "value": "0 number of dogs"}, {"measurement": "Mortality", "setting": "in vivo [1]; male, beagle", "value": "0 number of dogs"}, {"measurement": "MTD at 14 days", "setting": "in vivo [2]", "value": 300, "unit": "mg/kg"}, {"measurement": "percentage of tPA's activity", "setting": "[3]; 0.5 mM", "value": 93.70, "unit": "%"}, {"measurement": "percentage of tPA's activity", "setting": "[3]; 1 mM", "value": 91.18, "unit": "%"}, {"measurement": "percentage of tPA's activity", "setting": "[3]; 5 mM", "value": 88.78, "unit": "%"}, {"measurement": "percentage of tPA's activity", "setting": "[3]; 10 mM", "value": 89.39, "unit": "%"}, {"measurement": "percentage of tPA's activity", "setting": "[3]; 15 mM", "value": 103.70, "unit": "%"}, {"measurement": "activity on tPA's active site", "setting": "[3]; at the tested concentrations", "value": "no activity"}, {"measurement": "effective dosage (concentration preventing complete clot degradation after 24 h)", "setting": "whole blood clots", "value": 10, "unit": "µM"}]}
